In US9951066B2, “Compositions, uses and methods for making them” (Pimera, Inc., priority 2014, dated 2018):
pIC50: −log10 of the molar value. Like-named read-outs stand apart in the source and are kept apart here.

Test system: A375 cell line
Experiment: Alamar Blue cell viability assay, A375
Assay type: cell-based
Settings: Homo sapiens
Experimental: Inhibitory activity on cell proliferation of representative compounds of the invention was determined using an Alamar Blue cell viability assay as described hereafter.
3000 cancer cells in 100 uL of cell culture media were plated in each well of a 96-well clear bottom, black wall cell culture-pretreated plate.
The next day compounds are serially diluted (3-fold in cell culture media) across a 96-well polypropylene mother plate from row A to row F, to yield 6 concentrations (10 uM, 3.3 uM, 1.1 uM, 370 nM, 124 nM and 41 nM) for each test compound. Rows G and H contain only DMSO.
Once titrations are made, the media in plates with cells were disposed and 100 μL of drug dilutions are transferred to plates with cells. After a ninety six-hour incubation at 37° C., 10 uL of resazurin solution from Alamar Blue Cell Viability kit (Invitrogen, Carlsbad, Calif.) was added to the media and cells were incubated at 37° C. for three more hours. At the end of this incubation the production of resofurin was measured using Spectrmax M2 microplate reader (Molecular Devices, Sunnyvale, Calif.)

[1] = A-375, Table 4, cell proliferation inhibition, Alamar Blue, 96 h incubation, read-out: Pharmaceutical activity in A375 cell line IC50
[2] = A-375, cell proliferation inhibition, Alamar Blue, 96 h incubation, read-out: Pharmaceutical activity IC50 A375
[3] = A-375, 96 h, read-out: Pharmaceutical activity in A375 cell line IC50

pIC50 [1]	Structure (SMILES)	also measured
5.00 to 5.30	CN1CCN(c2ccc3cc(C(=O)NN)c4nc5ccccc5n4c3n2)CC1 [Compound 5B]	
5.30 to 6.00	COCCNc1ccc2cc(C#N)c3nc4ccccc4n3c2n1 [Compound 3I, 2-(2-Methoxy-ethylamino)-1,7,11b-triaza-benzo[c]fluorene-6-carbonitrile]	
> 6.00	CN(C)CCNC(=O)c1cc2cnccc2n2c1nc1ccccc12 [Compound 13D, 3,7,11b-Triaza-benzo[c]fluorene-6-carboxylic acid (2-dimethylamino-ethyl)-amide]	
5.30 to 6.00	N#Cc1cc2ccc(NCCn3ccnc3)nc2n2c1nc1ccccc12 [Compound 3G, 2-(2-Imidazol-1-yl-ethylamino)-1,7,11b-triaza-benzo[c]fluorene-6-carbonitrile]	
5.30 to 6.00	CN(C)CCNc1ccc2cc(C(=O)NN)c3nc4ccccc4n3c2n1 [Compound 12B, 2-(2-Dimethylamino-ethylamino)-1,7,11b-triaza-benzo[c]fluorene-6-carboxylic acid hydrazide]	
5.30 to 6.00	[2H]C([2H])([2H])NC(=O)c1cc2ccc(N3CCCN(C)CC3)nc2n2c1nc1ccccc12 [Compound 4E, 2-(4-Methyl-[1,4]diazepan-1-yl)-1,7,11b-triaza-benzo[c]fluorene-6-carboxylic acid methyl-d3-amide]	
5.30 to 6.00	N#Cc1cc2ccc(NCCN3CCOCC3)nc2n2c1nc1ccccc12 [Compound 3E, 2-(2-Morpholin-4-yl-ethylamino)-1,7,11b-triaza-benzo[c]fluorene-6-carbonitrile]	
5.30 to 6.00	CNC(=O)c1cc2ccc(N3CCN(C)CC3)nc2n2c1nc1ccccc12 [Compound 5C]	
5.30 to 6.00	CN(C)CCNC(=O)c1cc2cc(F)cnc2n2c1nc1ccccc12 [Compound 7F, 3-Fluoro-1,7,11b-triaza-benzo[c]fluorene-6-carboxylic acid (2-dimethylamino-ethyl)-amide]	
> 6.00	CONC(=O)c1cc2ccc(N3CCCN(C)CC3)nc2n2c1nc1ccccc12 [Compound 4F, 2-(4-Methyl-[1,4]diazepan-1-yl)-1,7,11b-triaza-benzo[c]fluorene-6-carboxylic acid methoxy-amide]	
5.00 to 5.30	NNC(=O)c1cc2ccc(NCCN3CCOCC3)nc2n2c1nc1ccccc12 [Compound 11C, 2-(2-Morpholin-4-yl-ethylamino)-1,7,11b-triaza-benzo[c]fluorene-6-carboxylic acid hydrazide]	
> 6.00	CNC(=O)c1cc2ccc(NCCN(C)C)nc2n2c1nc1ccccc12 [Compound 12C, 2-(2-Dimethylamino-ethylamino)-1,7,11b-triaza-benzo[c]fluorene-6-carboxylic acid methylamide]	
> 6.00	CNNC(=O)c1cc2ccc(N3CCCN(C)CC3)nc2n2c1nc1ccccc12 [Compound 4D, 2-(4-Methyl-[1,4]diazepan-1-yl)-1,7,11b-triaza-benzo[c]fluorene-6-carboxylic acid N′-methyl-hydrazide]	
5.00 to 5.30	CNC(=O)c1cc2ccc(N3CCC[N+](C)(C)CC3)nc2n2c1nc1ccccc12 [Compound 6A, 1,1-Dimethyl-4-(6-methylcarbamoyl-1,7,11b-triaza-benzo[c]fluoren-2-yl)-[1,4]diazepan-1-ium; iodide]	
5.30 to 6.00	CNC(=O)c1cc2ccc(NCCN3CCOCC3)nc2n2c1nc1ccccc12 [Compound 11D, 2-(2-Morpholin-4-yl-ethylamino)-1,7,11b-triaza-benzo[c]fluorene-6-carboxylic acid methylamide]	

The remaining lines, values behind:

Structure (SMILES)	pIC50 [1]	also measured
O=C(NCCN1CCCC1)c1cc2cnccc2n2c1nc1ccccc12 [Compound 13G]	> 6.00	
O=C(NCCN1CCOCC1)c1cc2cc(F)cnc2n2c1nc1ccccc12 [Compound 7G, 3-Fluoro-1,7,11b-triaza-benzo[c]fluorene-6-carboxylic acid (2-morpholin-4-yl-ethyl)-amide]	< 5.00	
O=C(NCCN1CCCC1)c1cc2cc(F)cnc2n2c1nc1ccccc12 [Compound 7I, 3-Fluoro-1,7,11b-triaza-benzo[c]fluorene-6-carboxylic acid (2-pyrrolidin-1-yl-ethyl)-amide]	5.30 to 6.00	
CC(C)NC(=O)c1cc2cnccc2n2c1nc1ccccc12 [Compound 13C, 3,7,11b-Triaza-benzo[c]fluorene-6-carboxylic acid isopropylamide]	5.00 to 5.30	
O=C(NCCN1CCOCC1)c1cc2cnccc2n2c1nc1ccccc12 [Compound 13F, 3,7,11b-Triaza-benzo[c]fluorene-6-carboxylic acid (2-morpholin-4-yl-ethyl)-amide]	5.00 to 5.30	
O=C(c1cc2cc(F)cnc2n2c1nc1ccccc12)N1CCCNCC1 [Compound 7D, [1,4]Diazepan-1-yl-(3-fluoro-1,7,11b-triaza-benzo[c]fluoren-6-yl)-methanone]	< 5.00	
Cc1nnc(-c2cc3ccc(N4CCCN(C)CC4)nc3n3c2nc2ccccc23)o1 [Compound 10E, 2-(4-Methyl-[1,4]diazepan-1-yl)-6-(5-methyl-[1,3,4]oxadiazol-2-yl)-1,7,11b-triaza-benzo[c]fluorine]	> 6.00	
CN1CCCN(c2ccc3cc(C(=O)NC4CCOCC4)c4nc5ccccc5n4c3n2)CC1 [Compound 2D, 2-(4-methyl-[1,4]diazepan-1-yl)-1,7,11b-triazabenzo[c]fluorene-6-carboxylic acid (tetrahydropyran-4-yl)-amide]		pIC50 [2]: 5.30 to 6.00
CNC(=O)c1cc2c(N3C[C@@H](C)N[C@@H](C)C3)ccnc2n2c1nc1ccccc12 [Compound 8D]	> 6.00	
CC(C)NC(=O)c1cc2ccc(N3CCCN(C)CC3)nc2n2c1nc1ccccc12 [Compound 2A, 2-(4-methyl-[1,4]diazepan-1-yl)-1,7,11b-triazabenzo[c]fluorene-6-carboxylic acid isopropylamide]		pIC50 [2]: 5.00 to 5.30
CN1CCCN(c2ccc3cc(C(=O)Nc4nccs4)c4nc5ccccc5n4c3n2)CC1 [Compound 4A]	5.00 to 5.30	
CN1CCCN(c2ccc3cc(C(=O)NC4CC4)c4nc5ccccc5n4c3n2)CC1 [Compound 2C, 2-(4-methyl-[1,4]diazepan-1-yl)-1,7,11b-triazabenzo[c]fluorene-6-carboxylic acid cyclopropylamide]		pIC50 [2]: 5.30 to 6.00
CN1CCCN(C(=O)c2cc3cc(F)cnc3n3c2nc2ccccc23)CC1 [Compound 7C, (3-Fluoro-1,7,11b-triaza-benzo[c]fluoren-6-yl)-(4-methyl-[1,4]diazepan-1-yl)-methanone]	< 5.00	
O=C(O)c1cc2cc(F)cnc2n2c1nc1ccccc12 [Compound 7B, 3-Fluoro-1,7,11b-triaza-benzo[c]fluorene-6-carboxylic acid]	< 5.00	
COCCCNC(=O)c1cc2cnccc2n2c1nc1ccccc12 [Compound 13E, 3,7,11b-Triaza-benzo[c]fluorene-6-carboxylic acid (3-methoxy-propyl)-amide]	5.00 to 5.30	
N#Cc1cc2ccc(N3CCCNCC3)nc2n2c1nc1ccccc12 [Compound 3D, 2-[1,4]Diazepan-1-yl-1,7,11b-triaza-benzo[c]fluorene-6-carbonitrile]	> 6.00	
CC(C)NC(=O)c1cc2ccc(N3CCN(C)CC3)nc2n2c1nc1ccccc12 [Compound 5D]		pIC50 [3]: 5.00 to 5.30
CN1CCN(c2ccc3cc(C(=O)NC4CC4)c4nc5ccccc5n4c3n2)CC1 [Compound 5E, 2-(4-Methyl-piperazin-1-yl)-1,7,11b-triaza-benzo[c]fluorene-6-carboxylic acid cyclopropylamide]	5.30 to 6.00	
CC(C)NC(=O)c1cc2ccc(N3CCCNCC3)nc2n2c1nc1ccccc12 [Compound 9B, 2-[1,4]Diazepan-1-yl-1,7,11b-triaza-benzo[c]fluorene-6-carboxylic acid isopropylamide]		pIC50 [3]: 5.30 to 6.00
CC(NC(=O)c1cc2ccc(N3CCCN(C)CC3)nc2n2c1nc1ccccc12)C1CC1 (centres unmarked) [Compound 2B, 2-(4-Methyl-[1,4]diazepan-1-yl)-1,7,11b-triazabenzo[c]fluorene-6-carboxylic acid (1-cyclopropylethyl)-amide]		pIC50 [2]: 5.00 to 5.30
CN1CCN(c2ccc3cc(C#N)c4nc5ccccc5n4c3n2)CC1 [Compound 3H, 2-(4-Methyl-piperazin-1-yl)-1,7,11b-triaza-benzo[c]fluorene-6-carbonitrile]	> 6.00	
CNC(=O)c1cc2c(N3CCCN(C)CC3)ccnc2n2c1nc1ccccc12 [Compound 8B, 4-(4-Methyl-[1,4]diazepan-1-yl)-1,7,11b-triaza-benzo[c]fluorene-6-Carboxylic acid methylamide]	> 6.00	
CN1CCCN(c2ccc3cc(C#N)c4nc5ccccc5n4c3n2)CC1 [Compound 3C, 2-(4-Methyl-[1,4]diazepan-1-yl)-1,7,11b-triaza-benzo[c]fluorene-6-carbonitrile]	> 6.00	
CN1CCCN(c2ccc3cc(C(=O)NC#N)c4nc5ccccc5n4c3n2)CC1 [Compound 4C]	> 6.00	
CN1CCCN(c2ccc3cc(C(=O)NCC4(C)COC4)c4nc5ccccc5n4c3n2)CC1 [Compound 2F, 2-(4-Methyl-[1,4]diazepan-1-yl)-1,7,11b-triazabenzo[c]fluorene-6-carboxylic acid (3-methyloxetan-3-ylmethyl)-amide]		pIC50 [2]: 5.30 to 6.00
CN(C)C1CCN(c2ccc3cc(C#N)c4nc5ccccc5n4c3n2)C1 (centres unmarked) [Compound 3F, 2-(3-Dimethylamino-pyrrolidin-1-yl)-1,7,11b-triaza-benzo[c]fluorene-6-carbonitrile]	> 6.00	
